Activity calls are given as the source filed them. Cut-off not given; nearly all actives show IC50 up to about 8.9 µM.

A word on the IC50: it is the midpoint of a concentration-inhibition curve.

The target of the experiment is Signal transducer and activator of transcription 3 (Homo sapiens) (UniProt P40763). Description: STAT3 reporter inhibitors, potency, dose response, cell-based (AID 1399). The following applies: human cell STAT3 reporter inhibition.
As to `COC(=O)Oc1ccc(/C=N/NC(=O)CSCc2ccccc2Br)cc1OC`, the IC50 is 2.07 µM.

On to `CC(=O)N1CCc2cc(S(=O)(=O)NC3CCCc4ccccc43)ccc21` (stereo not given), for which the IC50 was 5.12 µM.

`COc1ccc(-c2nn(C)c(=O)c3ccccc23)cc1NC(=O)COc1ccc(C)cc1`: the IC50 was 5.06 µM.

`C[C@H]1O[C@@H](O[C@H]2[C@@H](O)C[C@H](O[C@H]3[C@@H](O)C[C@H](O[C@H]4CC[C@@]5(C)[C@H](CC[C@@H]6[C@@H]5CC[C@]5(C)[C@@H](C7=CC(=O)OC7)CC[C@]65O)C4)O[C@@H]3C)O[C@@H]2C)C[C@H](O)[C@@H]1O`: the IC50 is 0.7 µM.

As to `Cc1cc(NC(=O)c2cc(-c3cccs3)on2)nn1Cc1ccc(Cl)cc1`, the IC50 was 5.48 µM.

For `CCCCCCCc1ccc(-c2ccc(O)cc2)nc1`, the IC50 was 3.26 µM.

Regarding `Clc1ccc2ncc(-c3nnnn3-c3ccccc3)c(-c3ccccc3)c2c1`, the IC50 was 8.01 µM.

Regarding `O=C(C1CCN(c2nc3ccc(Br)cc3s2)CC1)N1CCC2(CC1)OCCO2`, the IC50 was 2.79 µM.

With `COc1cc(OC)cc(C(=O)Nc2nnc(NC(=S)Nc3ccccc3)s2)c1`, the IC50 is 3.91 µM.

Turning to `COC(=O)c1nn(-c2ccc3c(c2)CCN3C(C)=O)cc1O`, the IC50 is 1.29 µM.

With `CCOc1cc(C(=S)N2CCOCC2)ccc1OS(=O)(=O)c1ccc(NC(C)=O)cc1`, the IC50 is 5.23 µM.

Take `CCC(C)(C)c1ccc(OCCCC[n+]2cccc(C)c2)c(C(C)(C)CC)c1`: the IC50 was 4.09 µM.

In the case of `Cc1nc2ccccc2cc1OCc1ccccc1`, the IC50 was 4.76 µM.

`Nc1cc(-c2ccc(Br)cc2)nn1Cc1ccccc1`: the IC50 was 4.05 µM.

Consider `CC1CCC2C(=O)N(c3ccccc3OC(=O)c3ccccc3)C(=O)C2C1` (stereo not given), for which the IC50 is 9.22 µM.

`CCN(CC)c1ccc(NC(=O)CN2C(=O)CSc3ncccc32)c(C)c1`: the IC50 was 3.82 µM.

Regarding `COC(=O)c1cccc(NC(=O)CSc2nc3cccnc3n2C)c1`, the IC50 is 5.35 µM.

`Cc1ccc(-n2ncc3c(SCc4cccnc4)ncnc32)c(C)c1`: the IC50 was 5.76 µM.

`CC[n+]1ccccc1/C=C/c1ccc(N(C)C)cc1`: the IC50 is 2.94 µM.

With `O=C(Nc1ccc(Oc2ccccc2)cc1)c1cnc2n(c1=O)CCS2`, the IC50 is 1.61 µM.

In the case of `Cc1nc2sccn2c1-c1csc(NCc2ccccc2)n1`, the IC50 was 4.37 µM.

With `Cc1ccsc1/C=C1\CCc2ccccc2C1=O`, the IC50 is 5.04 µM.

For the compound `CCCNC(=O)c1ccc(-c2nc3ccccc3s2)s1`, the IC50 was 5.06 µM.

For the compound `Cc1cccc(-c2nc3cc(NC(=O)C4CCCO4)ccc3o2)c1` (stereo not given), the IC50 was 6.32 µM.

On to `Cc1cc(OCC(=O)Nc2ccncc2)ccc1Br`, for which the IC50 is 6.7 µM.

Take `CC(=O)c1cn(CC(=O)Nc2ccccc2C)c2ccccc12`: the IC50 was 5.07 µM.

Take `O=C(Nc1ccc(Cc2ccncc2)cc1)c1ccc(S(=O)(=O)N2CCOCC2)cc1`: the IC50 is 4.31 µM.

`Cc1ccccc1OCCCCn1cnc2ccccc21`: the IC50 is 5.73 µM.

Consider `Cc1nc(CNS(=O)(=O)c2ccc(Oc3ccccc3)cc2)cs1`, for which the IC50 is 5.54 µM.

With `Cc1cc(OCC(=O)Nc2ccncc2)cc(C)c1Br`, the IC50 was 3.18 µM.

In the case of `Cc1ccc(-n2nnnc2SCn2nnc3ccccc3c2=O)c(C)c1`, the IC50 is 5.32 µM.

Consider `CC(=O)c1ccc(N=Nc2ccc(C)cc2)cc1`, for which the IC50 is 4.77 µM.

Regarding `O=c1c2c(nc3n1CCCCC3)sc1c(O)cccc12`, the IC50 is 7.42 µM.

`O=C(Nc1cccc(O)c1)c1noc2c1CCc1ccccc1-2`: the IC50 is 3.55 µM.

Consider `CN1/C(=C\C(=O)C[n+]2ccc3ccccc3c2)C(C)(C)c2ccccc21`, for which the IC50 is 1.74 µM.

As for `CSc1ccc(NC(=O)N2CCN(c3nc4ccccc4s3)CC2)cc1`, the IC50 is 5.96 µM.

Turning to `CCOC(=O)c1oc2ccc(S(=O)(=O)Nc3ccc4c(c3)n(C)c(=O)n4C)cc2c1C`, the IC50 was 5.04 µM.

As to `Cc1cccc(C)c1NC(=O)N1CCN(c2nc3ccccc3s2)CC1`, the IC50 is 4.48 µM.

As for `Nc1cc(-c2ccccc2)nn1Cc1ccc(Cl)cc1`, the IC50 is 6.76 µM.

`CCOC(=O)c1sc2nc(CC(=O)OC)nc(NCc3ccc(Cl)cc3)c2c1C`: the IC50 is 7.66 µM.

As for `CN(C)S(=O)(=O)Oc1cccc(C(=O)Nc2ccc(Cl)cc2)c1`, the IC50 was 5.23 µM.

`O=C(CSc1ccc2ccccc2c1)Nc1ccncc1`: the IC50 was 7.66 µM.

Consider `O=C(Nc1ccn(Cc2ccccc2F)n1)c1ccc(COc2ccccc2Cl)cc1`, for which the IC50 is 5.12 µM.

On to `CCOC(=O)Cc1csc(SCC(=O)c2c(N)n(CC(C)C)c(=O)n(C)c2=O)n1`, for which the IC50 was 3.7 µM.

On to `CC(=O)Nc1ccc(-c2csc(Nc3ccc(Cl)cn3)n2)cc1`, for which the IC50 was 6.34 µM.

Regarding `O=C(Nc1ccc(N2CCN(C(=O)c3ccco3)CC2)c(Cl)c1)c1cc2ccccc2o1`, the IC50 is 8.95 µM.

For `COc1ccc(CC(=O)Nc2cccc(-c3nnc(-c4cccc(C)c4)o3)c2)cc1OC`, the IC50 was 3.32 µM.

On to `O=S(=O)(c1ccc2c(c1)OCCO2)N1CCC(c2nc3ccccc3s2)CC1`, for which the IC50 was 6.73 µM.

Consider `NNC(=O)c1cccc(COc2ccccc2Br)c1`, for which the IC50 is 3.25 µM.

For the compound `c1ccc(C(Cc2nc(-c3ccncc3)no2)c2ccccc2)cc1`, the IC50 is 5.05 µM.

As to `COc1ccccc1OCC(=O)c1[nH]c(C)c(C(C)=O)c1C`, the IC50 is 5.33 µM.

As to `Cc1cc(C)n(Cc2ccc(NC(=O)c3ccc(COc4ccccc4Br)cc3)cc2)n1`, the IC50 is 7.64 µM.

For `Clc1ccc(OCc2cc(-c3ccccc3)no2)c(Cl)c1`, the IC50 was 8.02 µM.

As to `COc1ccc2nc3c(cc2c1)c(NC(=O)c1cccs1)nn3CC(C)C`, the IC50 was 3.75 µM.

On to `COc1ccc(/C=N/NC(=S)Nc2ccccc2[N+](=O)[O-])cc1O`, for which the IC50 is 1.74 µM.

On to `C[C@H]1O[C@@H](O[C@H]2[C@@H](O)C[C@H](O[C@H]3[C@@H](O)C[C@H](O[C@H]4CC[C@@]5(C)[C@H](CC[C@@H]6[C@@H]5C[C@@H](O)[C@]5(C)[C@@H](C7=CC(=O)OC7)CC[C@]65O)C4)O[C@@H]3C)O[C@@H]2C)C[C@H](O)[C@@H]1O`, for which the IC50 is 1.86 µM.

With `COc1ccc(/C=N/NC(=S)Nc2cccc(C(=O)O)c2)cc1`, the IC50 is 4.56 µM.

Take `Cn1c(CN2CCCCC2)nc2cc(NC(=O)c3cccc(Br)c3)ccc21`: the IC50 was 4.55 µM.

On to `CC1CCCCC1NS(=O)(=O)c1ccc(S(=O)(=O)NCc2ccncc2)cc1` (stereo not given), for which the half-maximal inhibitory concentration (IC50) is 3.28 µM.

For the compound `COc1ccc(C(=O)Nc2ccc3oc(Cc4ccc(Cl)cc4)nc3c2)cc1OC`, the IC50 is 6.74 µM.

On to `O=C(Nc1cccc(S(=O)(=O)Nc2ccccc2Cl)c1)c1ccc(Cl)nc1`, for which the IC50 was 5.13 µM.

Take `O=C(Oc1cccc(Nc2ncnc3ccccc23)c1)c1ccccc1Cl`: the IC50 was 4.44 µM.

As to `O=C(Nc1cccc(Cl)c1)Nc1ccnc(-c2cccnc2)n1`, the IC50 is 3.2 µM.

Take `O=C(Nc1ccc(Oc2ccccc2)cc1)C1CCN(c2c3c(nc4ncnn24)CCC3)CC1`: the IC50 was 6.45 µM.

For `O=C(Nc1ccn(Cc2ccccc2F)n1)c1ccc(COc2ccc(Br)cc2)cc1`, the IC50 was 2.9 µM.

For `CNc1ccccc1C(C)(C)c1cc(-c2ccc(F)cc2)no1`, the IC50 was 5.41 µM.

In the case of `O=C(Nc1nc(-c2ccc(Cl)s2)cs1)c1ccncc1`, the IC50 was 4.01 µM.

Regarding `CNC(=O)Oc1cccc(-c2cn3cc(Cl)ccc3n2)c1`, the IC50 was 1.78 µM.

Regarding `CN(C)S(=O)(=O)c1ccc(C(=O)Nc2nc(-c3cccs3)cs2)cc1`, the IC50 is 8.64 µM.

`CN1/C(=C\C(=O)C[n+]2ccc(C(=O)c3ccccc3)cc2)C(C)(C)c2ccccc21`: the IC50 is 5.22 µM.

As to `Cc1nn2cc(-c3ncc(C(F)(F)F)cc3Cl)cnc2c1Br`, the IC50 result is “inactive”.

With `CCOC(=O)c1ccc(NC(=O)c2ccc(CN3CCOCC3)cc2)cc1`, the 50% inhibitory concentration (IC50) is 2.9 µM.

`CCC(C)NC(=S)Nc1ccc(C(=O)OC)cc1` (stereo not given): the IC50 is 4.35 µM.

On to `COc1cccc(-c2cc(C(=O)Nc3cccc(O)c3)no2)c1`, for which the IC50 was 4.99 µM.

Consider `Cc1ccc(S(=O)(=O)N(C)c2ccc(C(=O)N3CCN(Cc4ccc5c(c4)OCO5)CC3)cc2)cc1`, for which the IC50 was 6.17 µM.

With `CCCCOc1ccc(C(=O)Nc2ccncc2)cc1`, the IC50 is 2.11 µM.

As to `O=C1CCCN1c1ccc(S(=O)(=O)N2CCC(c3ccccc3)CC2)cc1`, the IC50 was 4.5 µM.

For the compound `c1ccc(CC2CCN(c3ncnc4sccc34)CC2)cc1`, the IC50 is 1.61 µM.

For the compound `Cn1c(=O)oc2cc(S(=O)(=O)N3CCCC(C(=O)N4CC=C(c5ccccc5)CC4)C3)ccc21` (stereo not given), the half-maximal inhibitory concentration (IC50) was 5.41 µM.

As for `COc1ccc(C)cc1-n1nnnc1SCn1nnc2ccccc2c1=O`, the IC50 is 7.58 µM.

As for `Nc1c(C(=O)NC2CCCCC2)nsc1C(=O)OCC(=O)NC1CCCCC1`, the IC50 was 4.22 µM.

As to `CCOc1ncccc1C(=O)OCC(=O)Nc1ccc(-c2nc3ccc(C)cc3s2)cc1`, the IC50 is 3.25 µM.

With `COc1ccc2cc(-c3cc(C(=O)OCC(=O)Nc4c(C)n(C)n(-c5ccccc5)c4=O)c4ccccc4n3)ccc2c1`, the IC50 is 4.63 µM.

As for `CCc1c(C)c2ccc(OCC(=O)OC(C)C)c(C)c2oc1=O`, the IC50 is 6.19 µM.

On to `Cc1nc2ccccc2cc1OCc1ccc(F)cc1`, for which the 50% inhibitory concentration (IC50) was 3.47 µM.

Regarding `Cc1ccc(Cl)cc1N1CCN(C(=O)COc2ccc(S(=O)(=O)NC(C)C)cc2)CC1`, the IC50 was 7.8 µM.

`O=C(Oc1ccccc1N1C(=O)C2CCCCC2C1=O)c1ccccc1` (stereo not given): the IC50 is 7.93 µM.

For the compound `Cc1ccc2c(C)nc(Nc3nc(CSc4nc5ccccc5[nH]4)cc(=O)[nH]3)nc2c1`, the IC50 is 5.32 µM.

Consider `COc1ccc(CC(=O)Nc2cccc(SC)c2)cc1OC`, for which the IC50 was 6.37 µM.

`Cc1cccc(N2CCN(C(=O)CSCc3c(C)noc3C)CC2)c1C`: the IC50 was 4.55 µM.

For `COc1ccc(NS(=O)(=O)c2ccc(NC(=O)c3ccc(N(C)S(C)(=O)=O)cc3)cc2)cc1`, the IC50 was 3.99 µM.

As to `O=C1C2C3c4ccccc4C(c4ccccc43)C2c2nc3ccccc3n21` (stereo not given), the IC50 was 3.23 µM.

Consider `CC(C)Cn1c(N)c(C(=O)CSc2ccccc2)c(=O)n(C)c1=O`, for which the IC50 is 5.57 µM.

For the compound `C[C@@H]1O[C@@H](O[C@H]2C[C@@H](O)[C@]3(CO)[C@H]4[C@H](O)C[C@]5(C)[C@@H](C6=CC(=O)OC6)CC[C@]5(O)[C@@H]4CC[C@]3(O)C2)[C@H](O)[C@H](O)[C@H]1O`, the IC50 is 1.15 µM.

Consider `O=C(NC1CC1)c1cc2c(s1)-c1ccccc1OC2`, for which the IC50 is 3.83 µM.

These data come from PubChem BioAssay AID1399 (The Scripps Research Institute Molecular Screening Center, 2008).
